Results published in patent US20220356452A1, “INDIRECT THREE-DIMENSIONAL CO-CULTURE OF DORMANT TUMOR CELLS AND USES THEREOF” (University of Delaware, priority 2019, published 2022).

Key:
Type in all cases: cell-based
T47D cells [1] = assay: Quantitative analysis of LC3B+ve puncta cells (autophagy) by immunofluorescent staining in 3D culture; settings: for autophagy (LC3B+ve puncta cells) with cytokine treatment: T47D in 3D culture, day 15, vs untreated T47D mono-culture
Source text: Observations made with the in vitro model system shown here are consistent with in vivo observations in bone in a preclinical model for studying breast cancer dormancy at metastatic sites. a & b, Quantitative analysis of cells positive for LC3B^+ve puncta in images of immunofluorescent staining of autophagic protein (LC3B), cytoplasm (Phalloidin), and DNA (Hoechst) of T47D and BT474 cells in 3D mono-culture or indirect co-culture (#) with different BM niche cells (hFOB or hMSC) analyzed. Induction of autophagy observed in the indirect co-culture condition for T47D or BT474 with hFOB at Day 10 & 15, but not in mono-culture of T47D or co-culture of T47D with hMSC cells. […] In the case of T47D #hMSC insert exchange to #hFOB, induction of autophagy was observed upon insert exchange with similar observations for BT474 cells in these co-cultures. Significant differences assessed by Student's two-sided t-test, where differences shown for comparison between time points in co-culture conditions (*p<0.05, **p<0.01; ***p<0.001). Data are shown represent mean±SD (n=3).
(§1) Significant differences assessed by ANOVA with Tukey's multiple comparisons test, where differences are shown for comparison between controls and multiple conditions at day 15 time point (*p<0.05, **p<0.01; ***p<0.001). Data are shown represent mean±SD (n=3).
Significant differences assessed by one-way ANOVA with Tukey's multiple comparisons test, where differences are shown for comparison between multiple time points (*p<0.05, **p<0.01; ***p<0.001). Data are shown represent mean±SD (n=3).

T47D cells [2] = assay: EdU proliferation assay in 3D mono-culture or indirect co-culture with hFOB; settings: T47D in 3D culture, day 15, vs untreated T47D mono-culture
Method: Indirect co-culture also enables facile switching to elucidate effects of transition from dormancy-promoting to growth-promoting microenvironments. Breast cancer cell proliferation assessment of over time culture with different conditions in 3D hydrogels: 5-ethynyl-2′-deoxyuridine (EdU) proliferation assay was measured for both T47D & BT474 cells at each time point during 15 days of culture. a & b, Quantification of proliferative (EdU^+ve) T47D & BT474 cells alone (control) or in indirect co-culture (#) with different BM niche cells (hFOB or hMSC). […] Significant differences assessed by Student's two-sided t-test, where differences shown for comparison between time points in mono and co-culture conditions (*p<0.05, **p<0.01; ***p<0.001). e, Quantitative analysis of metabolic activity with AlamarBlue assay of T47D cells after insert exchange at day 10 (fold change relative to day 3). Statistical differences determined with ANOVA with Tukey's multiple comparisons test, where differences are shown for comparison between co-culture conditions on day 15 and 20 (*p<0.05, **p<0.01; ***p<0.001). Data are shown represent mean±SD (n=3).
as §1

T47D cells [3] = assay: Quantitative analysis of viable cells (viability/growth) of BCCs in 3D mono-culture or indirect co-culture with hFOB; settings: T47D in 3D culture treated with recombinant human cytokines, vs untreated T47D mono-culture; day 15
Method: Significant differences were assessed by ANOVA with Tukey's multiple comparisons test, where differences are shown for comparison between controls and multiple conditions at day 15 time point (*p<0.05, **p<0.01; ***p<0.001). Data are shown represent mean±SD (n=3).

Compound	autophagy (LC3B+ve puncta cells) with autophagy inhibitor (T47D cells [1]; T47D #hFOB co-culture, 12.5 pg/mL, 2 doses (Day 6 and Day 14), observation over 25 days)	autophagy (LC3B+ve puncta cells) with cytokine treatment (T47D cells [1])	proliferation rate (EdU+ve cells) with cytokine treatment (T47D cells [2])	growth (viable cells) with cytokine treatment (T47D cells [3])
CCN(CCO)CCCC(C)Nc1ccnc2cc(Cl)ccc12 (stereo not shown) [HCQ, hydroxychloroquine, reference compound]	inhibition of autophagy	–	–	–
MCP1: recombinant human MCP1 cytokine	–	induced autophagosome formation	significantly decreased the proliferation rate	significant growth inhibition
TNFa	–	induced autophagosome formation	significantly decreased the proliferation rate	significant growth inhibition
